# Test results: patent US20050152959A1, “Use of a lysolipid for the preparation of a composition for transfection of a polynucleotide into a cell” (Transgene S. A., priority 2001, published 2005)
# How the values were obtained:
# RENCA cells = experiment: Intratumoral transfer of luciferase plasmid pTG11236 with HPC into RENCA tumors, luciferase measurement; assay type: in vivo; conditions: RENCA tumors in B6D2 mice; 50 μl intratumoral, 0.4, 2 or 10 μg plasmid pTG11236 with 2 mg/ml HPC; 24 hours after last injection; compared with no HPC
# Protocol: (§1) FIG. 1: show the effect of hexadecylphosphocholine (HPC) on intratumoral transfer of the luciferase-plasmid (pTG11236) into RENCA cells. Bars are means of RLU per minute per mg protein. Luciferase activity was measured 24 hours after the last injection of 50 μl of a composition, comprising between 0.4, 2 or 10 μg of plasmid and 2 mg/ml of HPC, into B6D2 mice. Plasmid DNA (pTG11236: CMV promoter, β-globin intron, luciferase cassette, 5739 base pairs) was prepared according to Bischoff et al., Analytical Biochemistry 254 (1997), 69-81. RENCA or P815 cells were injected under the skin of 6 to 8 week old B6D2 female mice (3 10^5 cells/animal). Eleven days after the injection of the cells, palpable tumours appear. Prior to intratumoral injection HPC was mixed with the plasmid DNA preparation Then, various quantities of plasmid and HPC were directly injected into the tumor three times (with three day-time interval between subsequent injection). Twenty four hours after injection of the composition, the mice were killed and the tumors were retrieved and frozen. Luciferase activity was quantified on whole tumor extracts using a conventional measurement kit (Luciferase Assay System, Promega). […] Luciferase activity was expressed as number of RLU emitted per minute, per mg of protein. Protein was measured on 10 μl samples using a VCA Protein Assay kit (Pierce).
# P815 cells = experiment: Intratumoral transfer of luciferase plasmid pTG11236 with HPC into P815 tumors, luciferase measurement; assay type: in vivo; conditions: P815 tumors in B6D2 mice; 50 μl intratumoral, 10 μg plasmid pTG11236 with 0.4 mg/ml HPC; 24 hours after last injection; compared with no HPC
# Protocol: as §1, with “FIG. 2:” for “FIG. 1:”, “of HPC” for “of hexadecylphosphocholine (HPC)”, “into P815” for “into RENCA”, “comprising” for “comprising between 0.4, 2 or”, “and 0.4” for “and 2”, “Promega). Briefly, tumors were diluted in 200 μl of reporter lysis buffer (Promega).” for “Promega).”
compound,measurement,setting,value
"CCCCCCCCCCCCCCCCOP(=O)([O-])OCC[N+](C)(C)C [HPC, hexadecylphosphocholine]",Luciferase activity of the injected tumors (RLU per minute per mg protein),RENCA cells,higher
same,Luciferase activity of the injected tumors (RLU per minute per mg protein),P815 cells,higher
